Laboratory results reported in ChEMBL document CHEMBL1145711, “Dolabelides C and D, Cytotoxic Macrolides Isolated from the Sea Hare Dolabella auricularia” (J Nat Prod, 1997).
In brackets after ≈: the same amount, converted by molar mass.

Experiment: Cytotoxicity against human HeLaS3 cells
Assay type: functional, cell-based
Conditions: HeLa S3

Structure (SMILES) | IC50
CCC[C@H](C/C(C)=C/[C@H]1OC(=O)[C@@H](C)[C@@H](O)[C@H](C)CC[C@H](OC(C)=O)C[C@@H](OC(C)=O)C[C@@H](OC(C)=O)CC/C(C)=C/CCC[C@@H](O)C[C@H](O)[C@@H]1C)OC(C)=O [DOLABELIDE C] | 1.9 µg/mL (≈ 2.38 µM)
CCC[C@H](C/C(C)=C/[C@H]1OC(=O)[C@@H](C)[C@@H](O)[C@H](C)CC[C@H](O)C[C@@H](OC(C)=O)C[C@@H](O)CC/C(C)=C/CCC[C@@H](O)C[C@H](O)[C@@H]1C)OC(C)=O [DOLABELIDE D] | 1.5 µg/mL (≈ 2.1 µM)
